In patent publication US20260325473A1, “N-Beta-Hydroxybutyryl-Amino Acids and Related Compositions and Methods” (The Board of Trustees of the Leland Stanford Junior …, priority 2023, published 2026):

What was measured:
[1] = test system: diet-induced obese (DIO) mice; assay: Acute administration in DIO mice in metabolic chambers; format: in vivo, mouse; details: 50 mg/kg IP, single
Procedure: General animal information. Animal experiments were performed according to procedure approved by the Stanford University Administrative Panel on Laboratory Animal Care (APLAC). Mice were maintained in 12-hr light-dark cycles at 22° C. and ~50% relative humidity and fed a standard irradiated rodent chow diet. Where indicated, high-fat diet (D12492, Research Diets 60% kcal from fat) and ketogenic diet (D06040601, Research Diets, 80% kcal fat/15% kcal protein/5% kcal carbohydrate) was used. Male C57BL/6J (stock no. 000664) and male C57BL/6J DIO mice (stock no. 380050) were purchased from Jackson Laboratory. Male C57BL/6NCrl (stock no. 027) mice were purchased from Charles River Laboratory. Whole body CNDP2-KO mice (catalog number, C57BL/6NCrl-Cndp2em1 (IMPC) Mbp/Mmucd, RRID: MMRRC_043492-UCD) were obtained from the Mutant Mouse Regional Resource Center, a NCRR-NIH funded strain repository. For in vivo injection of mice with metabolites, compounds were dissolved in 18:1:1 (by volume) of saline/Kolliphor EL (Sigma Aldrich)/DMSO. Compounds were administered to mice daily via intraperitoneal injections at 5 μl/g body weight at the indicated doses. For all injection experiments, mice were mock injected with the vehicle for 3-5 days until body weights have stabilized. Sample sizes were determined on the basis of previous experiments using similar methodologies. For metabolite administration experiments, mice were randomly assigned to treatment groups. Experimenters were not blinded to groups.

primary cardiomyocytes = assay: Keto amino acid production in BHB-treated cardiomyocytes; format: cell-based, human; details: BHB 25 mM, overnight
Procedure: Human induced pluripotent stem cells (iPSCs) culture and cardiac differentiation into cardiomyocytes (CMs). Human iPSCs from healthy donors were provided by Stanford Cardiovascular Institute Biobank and cultured in the E8 medium. When iPSCs were grown to 95% confluence, the E8 medium was replaced with RPMI 1640 (GIBCO) supplemented with B27 minus insulin (GIBCO) and 5 µM CHIR-99021 (Selleck Chemicals) to start cardiac differentiation at day 0. On day 2, the medium was replaced with RPMI-B27 minus insulin. On day 3, the medium was changed to RPMI-B27 minus insulin containing 5 μM IWR-1 (Selleck Chemicals) and was maintained for 48 hours. On day 5, the medium was changed back to RPMI-B27 minus insulin and was maintained for 48 hours. Then, the cells were incubated with complete CM medium consisting of RPMI 1640 medium and B27 supplement plus insulin (GIBCO). On day 12, the medium was replaced with RPMI-B27 without D-glucose (GIBCO) for metabolic purification of CMs for 4 days. Then, the medium was changed to the complete CM medium and replaced every 2 days. Human iPSC-CMs were dissociated by TrypLE Express (GIBCO) and re-plated on Matrigel-coated 12-well plate for further experiments. Cultures were maintained at 37° C. in a humidified incubator with 5% (v/v) CO^2.
Cellular enzyme activity assays. Cells were plated in 12-well plates at 70-80% confluence. […]

SMILES: CC(O)CC(=O)N[C@@H](Cc1ccccc1)C(=O)O (some centres unmarked) [BHB-Phe, N-betahydroxybutyryl-phenylalanine]
- food intake (metabolic chambers) [1]: reduced food intake
- ambulatory movement ([1]; over 10 h): without affecting movement
- energy expenditure: carbon dioxide production (VCO2) ([1]; over 10 h): without affecting movement, oxygen consumption or CO^2 production
- energy expenditure: oxygen consumption (VO2) ([1]; over 10 h): without affecting movement, oxygen consumption
- reduction of food intake ([1]; over 10 h): ~ 30%
- respiratory exchange ratio (RER) ([1]; over 10 h): reduction in respiratory exchange ratio (RER)
- ambulatory movement ([1]; over 10 h, listed as Keto-Phe): no effects
- energy expenditure: carbon dioxide production (VCO2) ([1]; over 10 h, listed as Keto-Phe): no effects
- energy expenditure: oxygen consumption (VO2) ([1]; over 10 h, listed as Keto-Phe): no effects
- respiratory exchange ratio (RER) ([1]; over 10 h, listed as Keto-Phe): no effects
- keto amino acid production by cardiomyocytes (primary cardiomyocytes): minor amount
